The values that follow come from patent US8372397B2, “Methods for regulation of stem cells” (priority 2004, dated 2013).

Bounds are passed on as bounds.

The test system of one series is GSK-3. The note with it: Ring et al. 2003 / Cline et al. 2002, cited from earlier work; for EC50: read-out: half-maximal effective concentration [EC50].
The conditions of series [1]: mouse, in vivo, ip, 30 mg/kg.
Experimental: (b) Blood glucose levels in peripheral blood of recipient mice following 5-week in vivo administration of 30 mg/kg GSK-3 inhibitor or vehicle control. Error bars represent SEM (n=6).

For `O=[N+]([O-])c1ccc(NCCNc2ncc(-c3ncc[nH]3)c(-c3ccc(Cl)cc3Cl)n2)nc1` [CHIR-837], in the series with GSK-3, the “selectivity for GSK-3” value is listed as > 5,000 fold and the EC50 is 0.375 µM.
As for `Cc1c[nH]c(-c2cnc(NCCNc3ccc(C#N)cn3)nc2-c2ccc(Cl)cc2Cl)n1` [CHIR-911], the “glycemic state (blood glucose) of transplanted recipients” value in series [1] was “maintaining a normoglycemic state”. The EC50 in the series on GSK-3 was […].
